Source: US20240058328A1, “MASITINIB FOR THE TREATMENT OF ALZHEIMER'S DISEASE” (AB SCIENCE, priority 2020, published 2024)

Tested on: patients with Alzheimer's disease
Experiment: Phase 3 study AB09004: change from baseline in ADCS-ADL score
Type: in vivo, human
Set-up: key to δLSM (ADCS-ADL): LSM difference in ADCS-ADL change; positive = improvement
Conditions: for δLSM (ADCS-ADL) / ΔLSM (ADCS-ADL): 4.5 mg/kg/day; for δLSM (ADCS-ADL): week 24 from baseline; for ΔLSM (ADCS-ADL): vs placebo, week 24; for improved benefit relative to complementary subpopulation: ΔLSM (ADCS-ADL)
Procedure: An international, multicenter, randomized, double-blind, placebo-controlled phase 3 study was conducted with the objective to evaluate oral masitinib at a dose of 4.5 mg/kg/day as a treatment for Alzheimer's disease.
Eligible patients, aged at least 50 years, were diagnosed with dementia of Alzheimer's type according to Diagnostic and Statistical Manual of Mental Disorders (DSM)-IV criteria, and probable Alzheimer's disease according to NINCDS-ADRDA (National Institute of Neurological and Communicative Diseases and Stroke/Alzheimer's Disease and Related Disorders Association) criteria. […] Patients with any other cause of dementia not due to Alzheimer's disease were ineligible for the study.
Eligible patients were treated during 24 weeks with masitinib at a dose of 4.5 mg/kg/day (mg per kilo body weight per day) or with placebo. Treatment was administered as add-on therapy in patients who had been treated for a minimum of 6 months with a stable dose of cholinesterase inhibitors (donepezil, rivastigmine or galantamine) and/or memantine, with no changes foreseen in therapy throughout the study.
Primary analysis was based on the co-primary endpoints of: • Change from baseline in Alzheimer's Disease Cooperative Study Activities of Daily Living (ADCS-ADL) score. The ADCS-ADL assesses the competence of patients with Alzheimer's disease in basic and instrumental activities of daily living (ADLs). • Change from baseline in Alzheimer's Disease Assessment Scale-Cognitive Subscale (ADAS-Cog). The ADAS-Cog assesses cognition and memory.
Treatment effect (masitinib versus placebo) was assessed based on absolute change from baseline to week 24 by using an analysis of covariance model (ANCOVA linear model) with the following factors: treatment, baseline value, and stratification criteria of baseline MMSE score, age, ADCS-ADL total score, and ADAS-Cog total score.
For ADCS-ADL, the global score (i.e., the sum of 23 items rated by the caregiver) was used with a range from 0 to 78, wherein 78 implies full functioning with no impairment. Thus, a higher score signifies greater functional ability, while a lower score signifies greater (worse) impairment. Results are expressed as a least-squares means difference (δLSM) of absolute change in ADCS-ADL score from baseline; that is to say, the change over time in the ADCS-ADL score, or in other words the difference between the ADCS-ADL score at baseline (before treatment initiation) and the ADCS-ADL score after treatment with masitinib or with placebo. An increase in ADCS-ADL score with respect to baseline (i.e., a positive δLSM) indicates an improvement in the patient and therefore disease stability, whereas a decrease in ADCS-ADL score with respect to baseline (i.e., negative δLSM) indicates a worsening in the patient and therefore disease progression. Treatment-effect is reported as the difference between treatment-arms (ΔLSM) (calculated as δLSM[masitinib] minus δLSM[placebo]), with a positive value indicating a beneficial effect of treatment with masitinib as compared to treatment with placebo. In a scenario where both treatment-arms show worsening in activities of daily living (i.e., a negative δLSM), then a positive ΔLSM indicates a beneficial treatment effect for masitinib, i.e., the rate of decline in masitinib treated patients is slower than that of patients from the placebo-arm.
The comparison was carried out using the following information: • δLSM: least-squares means difference of absolute change in endpoint score at week 24 from baseline, either according to ADAS-Cog assessment or to ADCS-ADL assessment. • ΔLSM: Difference between treatment-arms (treatment-effect) calculated as δLSM[masitinib] minus δLSM[placebo]. • Δsub/Δoverall: Ratio of subpopulation's placebo-controlled treatment-effect (ΔLSM at W24 for masitinib 4.5 mg/kg/d parallel arm) versus overall study population's placebo-controlled treatment-effect (ΔLSM at W24 for masitinib 4.5 mg/kg/d parallel arm). […]

With `Cc1ccc(NC(=O)c2ccc(CN3CCN(C)CC3)cc2)cc1Nc1nc(-c2cccnc2)cs1` [masitinib, 4-(4-methylpiperazin-1-ylmethyl)-N-[4-methyl-3-(4-pyridin-3ylthiazol-2-ylamino)phenyl]benzamide] the “δLSM (ADCS-ADL)” value (MMSE [12-20]) was −0.4369, the “ΔLSM (ADCS-ADL)” value (MMSE [25-21]) was “+2.7435 points” and the “ΔLSM (ADCS-ADL)” value (MMSE [25-21], listed as M4.5, 4.5 mg/kg/day) was 2.7435 points. The “δLSM (ADCS-ADL)” value (MMSE [25-21]) was 3.5738, the “ΔLSM (ADCS-ADL)” value (MMSE ≥13) was 2.0496 points and the “δLSM (ADCS-ADL)” value (MMSE ≥13) was 1.1204. The “ΔLSM (ADCS-ADL)” value (MMSE ≥14) was “+2.4046 points”, the “ΔLSM (ADCS-ADL)” value (MMSE ≥14, listed as M4.5, 4.5 mg/kg/day) was 2.4046 points and the “δLSM (ADCS-ADL)” value (MMSE ≥14) was 1.3505. The “ΔLSM (ADCS-ADL)” value (MMSE ≥15) was 2.2738 points, the “δLSM (ADCS-ADL)” value (MMSE ≥15) was 1.3520 and the “ΔLSM (ADCS-ADL)” value (MMSE ≥16) was 2.5566 points. The “δLSM (ADCS-ADL)” value (MMSE ≥16) was 1.6088, the “ΔLSM (ADCS-ADL)” value (MMSE ≥17) was 2.2870 points and the “δLSM (ADCS-ADL)” value (MMSE ≥17) was 1.0330. For the same compound, the “ΔLSM (ADCS-ADL)” value (Overall Population) was 1.8190 points, the “δLSM (ADCS-ADL)” value (Overall Population) was 1.0107 and the Δsub/Δoverall (ratio of ΔLSM (ADCS-ADL) at W24, Baseline ADCS-ADL >39 vs overall study population) was 1.14. The Δsub/Δoverall (ratio of ΔLSM (ADCS-ADL) at W24, Baseline ADCS-ADL >47 vs overall study population) was 1.19, the Δsub/Δoverall (ratio of ΔLSM (ADCS-ADL) at W24, Baseline ADCS-ADL >55 vs overall study population) was 1.75 and the Δsub/Δoverall (ratio of ΔLSM (ADCS-ADL) at W24, Baseline ADCS-ADL ≥32 vs overall study population) was 1.09. It also gave a Δsub/Δoverall (ratio of ΔLSM (ADCS-ADL) at W24, Baseline ADCS-ADL ≥35 vs overall study population) of 1.11, a Δsub/Δoverall (ratio of ΔLSM (ADCS-ADL) at W24, Baseline ADCS-ADL ≥38 vs overall study population) of 1.28 and a Δsub/Δoverall (ratio of ΔLSM (ADCS-ADL) at W24, Baseline ADCS-ADL ≥41 vs overall study population) of 1.11. For the same compound, the Δsub/Δoverall (ratio of ΔLSM (ADCS-ADL) at W24, Baseline ADCS-ADL ≥50 vs overall study population) was 1.78, the Δsub/Δoverall (ratio of ΔLSM (ADCS-ADL) at W24, MMSE [20-12] vs overall study population) was 0.76 and the Δsub/Δoverall (ratio of ΔLSM (ADCS-ADL) at W24, MMSE [25-21] vs overall study population) was 1.51. It also gave a Δsub/Δoverall (ratio of ΔLSM (ADCS-ADL) at W24, MMSE ≥13 vs overall study population) of 1.13, a Δsub/Δoverall (ratio of ΔLSM (ADCS-ADL) at W24, MMSE ≥14 vs overall study population) of 1.32 and a Δsub/Δoverall (ratio of ΔLSM (ADCS-ADL) at W24, MMSE ≥15 vs overall study population) of 1.25. For the same compound, the Δsub/Δoverall (ratio of ΔLSM (ADCS-ADL) at W24, MMSE ≥16 vs overall study population) was 1.41, the Δsub/Δoverall (ratio of ΔLSM (ADCS-ADL) at W24, MMSE ≥17 vs overall study population) was 1.26 and the “Δsub/Δoverall (percentage improvement)” value (ΔLSM (ADCS-ADL) at W24, Baseline ADCS-ADL >39 vs overall study population) was “(14%)”. For the same compound, the “Δsub/Δoverall (percentage improvement)” value (ΔLSM (ADCS-ADL) at W24, Baseline ADCS-ADL >47 vs overall study population) was “(19%)”, the “Δsub/Δoverall (percentage improvement)” value (ΔLSM (ADCS-ADL) at W24, Baseline ADCS-ADL >55 vs overall study population) was 75% and the “Δsub/Δoverall (percentage improvement)” value (ΔLSM (ADCS-ADL) at W24, Baseline ADCS-ADL >55 vs overall study population, listed as M4.5) was “(75%)”. The “Δsub/Δoverall (percentage improvement)” value (ΔLSM (ADCS-ADL) at W24, Baseline ADCS-ADL ≥32 vs overall study population) was “(9%)”, the “Δsub/Δoverall (percentage improvement)” value (ΔLSM (ADCS-ADL) at W24, Baseline ADCS-ADL ≥35 vs overall study population) was “(11%)” and the “Δsub/Δoverall (percentage improvement)” value (ΔLSM (ADCS-ADL) at W24, Baseline ADCS-ADL ≥38 vs overall study population) was “(28%)”. The “Δsub/Δoverall (percentage improvement)” value (ΔLSM (ADCS-ADL) at W24, Baseline ADCS-ADL ≥41 vs overall study population) was “(11%)”, the “Δsub/Δoverall (percentage improvement)” value (ΔLSM (ADCS-ADL) at W24, Baseline ADCS-ADL ≥50 vs overall study population) was 78% and the “Δsub/Δoverall (percentage improvement)” value (ΔLSM (ADCS-ADL) at W24, Baseline ADCS-ADL ≥50 vs overall study population, listed as M4.5) was “(78%)”. For the same compound, the “Δsub/Δoverall (percentage improvement)” value (ΔLSM (ADCS-ADL) at W24, MMSE [20-12] vs overall study population) was “(−24%)”, the “Δsub/Δoverall (percentage improvement)” value (ΔLSM (ADCS-ADL) at W24, MMSE [25-21] vs overall study population) was 51% and the “Δsub/Δoverall (percentage improvement)” value (ΔLSM (ADCS-ADL) at W24, MMSE [25-21] vs overall study population, listed as M4.5) was “(51%)”. The “Δsub/Δoverall (percentage improvement)” value (ΔLSM (ADCS-ADL) at W24, MMSE ≥13 vs overall study population) was “(13%)”, the “Δsub/Δoverall (percentage improvement)” value (ΔLSM (ADCS-ADL) at W24, MMSE ≥14 vs overall study population) was 32% and the “Δsub/Δoverall (percentage improvement)” value (ΔLSM (ADCS-ADL) at W24, MMSE ≥14 vs overall study population, listed as M4.5) was “(32%)”. For the same compound, the “Δsub/Δoverall (percentage improvement)” value (ΔLSM (ADCS-ADL) at W24, MMSE ≥15 vs overall study population) was “(25%)”, the “Δsub/Δoverall (percentage improvement)” value (ΔLSM (ADCS-ADL) at W24, MMSE ≥16 vs overall study population) was “(41%)” and the “Δsub/Δoverall (percentage improvement)” value (ΔLSM (ADCS-ADL) at W24, MMSE ≥17 vs overall study population) was “(26%)”. For the same compound, the “improved benefit relative to complementary subpopulation” value (baseline ADAS-Cog ≤25 relative to >25) was 84%, the “improved benefit relative to complementary subpopulation” value (baseline ADCS-ADL >39 relative to ≤39) was 191% and the “improved benefit relative to complementary subpopulation” value (baseline ADCS-ADL >55 relative to ≤55) was “about 600%”. For the same compound, the “improved benefit relative to complementary subpopulation” value (baseline MMSE 25 to 21 relative to MMSE 20 to 12, printed as 'between 99% to 66%') was 99%.
